According to the NIST ThermoML archive (doi:10.1021/je0499364):

What was measured:
[1] = Molar enthalpy of transition or fusion; conditions: Crystal
[2] = molar heat capacity at constant pressure; conditions: 101.33 kPa
[3] = Crystal

CCCCCCCCCCCCC(=O)OC [methyl tridecanoate]
Conditions | Molar enthalpy of transition or fusion [kJ/mol] | Triple point temperature [K]
[1] | 45.6 | –
[3] | – | 279.07

[2]
Conditions | molar heat capacity at constant pressure [J/K/mol]
5 K, Crystal | 0.53
10 K, Crystal | 4.03
20 K, Crystal | 19.77
30 K, Crystal | 41.39
40 K, Crystal | 65.69
50 K, Crystal | 89.16
60 K, Crystal | 108.8
70 K, Crystal | 127.88
80 K, Crystal | 144.45
90 K, Crystal | 158.95
100 K, Crystal | 171.63
110 K, Crystal | 183.91
120 K, Crystal | 195.21
130 K, Crystal | 205.64
140 K, Crystal | 215.67
150 K, Crystal | 225.37
160 K, Crystal | 234.95
170 K, Crystal | 244.5
180 K, Crystal | 254.1
190 K, Crystal | 264.04
200 K, Crystal | 274.24
210 K, Crystal | 284.88
220 K, Crystal | 296.06
230 K, Crystal | 307.94
240 K, Crystal | 321.07
250 K, Crystal | 336.07
260 K, Crystal | 350.98
270 K, Crystal | 371.61
290 K, Liquid | 463.91
300 K, Liquid | 469.05
310 K, Liquid | 473.89
320 K, Liquid | 479.3
330 K, Liquid | 485.18
340 K, Liquid | 491.82

CCCCCCCCCCCCCCCCCCC(=O)OC [methyl nonadecanoate]
Conditions | Molar enthalpy of transition or fusion [kJ/mol] | Triple point temperature [K]
[1] | 70.92 | –
[3] | – | 311.49

[2]
Conditions | molar heat capacity at constant pressure [J/K/mol]
5 K, Crystal | 0.69
10 K, Crystal | 5.1
20 K, Crystal | 26.27
30 K, Crystal | 55.13
40 K, Crystal | 87.37
50 K, Crystal | 117.8
60 K, Crystal | 143.77
70 K, Crystal | 168.98
80 K, Crystal | 190.79
90 K, Crystal | 210.18
100 K, Crystal | 228.66
110 K, Crystal | 244.31
120 K, Crystal | 259.07
130 K, Crystal | 273.22
140 K, Crystal | 286.84
150 K, Crystal | 300.17
160 K, Crystal | 313.53
170 K, Crystal | 327.31
180 K, Crystal | 339.52
190 K, Crystal | 353.2
200 K, Crystal | 367.35
210 K, Crystal | 380.94
220 K, Crystal | 397.52
230 K, Crystal | 413.93
240 K, Crystal | 432.32
250 K, Crystal | 450.65
260 K, Crystal | 469.65
270 K, Crystal | 491.94
280 K, Crystal | 518.01
290 K, Crystal | 549.43
300 K, Crystal | 586.63
320 K, Liquid | 691.61
330 K, Liquid | 677.17
340 K, Liquid | 684.76
350 K, Liquid | 693.78

CCCCCCCCCCC(=O)OC [methyl undecanoate]
Conditions | Molar enthalpy of transition or fusion [kJ/mol] | Triple point temperature [K]
[1] | 36.2 | –
[3] | – | 261.8

[2]
Conditions | molar heat capacity at constant pressure [J/K/mol]
5 K, Crystal | 0.42
10 K, Crystal | 3.28
20 K, Crystal | 18.49
30 K, Crystal | 38.09
40 K, Crystal | 59.59
50 K, Crystal | 80.21
60 K, Crystal | 97.96
70 K, Crystal | 113.74
80 K, Crystal | 128.03
90 K, Crystal | 141.39
100 K, Crystal | 152.92
110 K, Crystal | 163.81
120 K, Crystal | 173.57
130 K, Crystal | 182.89
140 K, Crystal | 191.72
150 K, Crystal | 200.53
160 K, Crystal | 209.38
170 K, Crystal | 217.78
180 K, Crystal | 226.5
190 K, Crystal | 235.38
200 K, Crystal | 244.52
210 K, Crystal | 253.93
220 K, Crystal | 264.97
230 K, Crystal | 276.95
240 K, Crystal | 291.77
250 K, Crystal | 320.5
270 K, Liquid | 395.83
280 K, Liquid | 398.95
290 K, Liquid | 402.95
300 K, Liquid | 406.99
310 K, Liquid | 411.22
320 K, Liquid | 416.08
330 K, Liquid | 421.78
340 K, Liquid | 426.55
350 K, Liquid | 431.52

CCCCCCCCCCCCCCC(=O)OC [methyl pentadecanoate]
Conditions | Molar enthalpy of transition or fusion [kJ/mol] | Triple point temperature [K]
[1] | 54.28 | –
[3] | – | 292.35

[2]
Conditions | molar heat capacity at constant pressure [J/K/mol]
5 K, Crystal | 0.5
10 K, Crystal | 4.15
20 K, Crystal | 21.13
30 K, Crystal | 43.92
40 K, Crystal | 71.36
50 K, Crystal | 97.58
60 K, Crystal | 120.37
70 K, Crystal | 141.42
80 K, Crystal | 159.35
90 K, Crystal | 175.8
100 K, Crystal | 190.15
110 K, Crystal | 203.86
120 K, Crystal | 216.45
130 K, Crystal | 228.03
140 K, Crystal | 239.15
150 K, Crystal | 249.97
160 K, Crystal | 260.57
170 K, Crystal | 272.29
180 K, Crystal | 282.1
190 K, Crystal | 293.1
200 K, Crystal | 304.43
210 K, Crystal | 316.28
220 K, Crystal | 328.72
230 K, Crystal | 341.8
240 K, Crystal | 355.9
250 K, Crystal | 371.28
260 K, Crystal | 387.35
270 K, Crystal | 403.92
280 K, Crystal | 432.13
300 K, Liquid | 524.33
310 K, Liquid | 534.12
320 K, Liquid | 539.26
330 K, Liquid | 544.8
340 K, Liquid | 551.15

CCCCCCCCCCCCCCCCC(=O)OC [methyl heptadecanoate]
Conditions | Molar enthalpy of transition or fusion [kJ/mol] | Triple point temperature [K]
[1] | 63.9 | –
[3] | – | 303.09

[2]
Conditions | molar heat capacity at constant pressure [J/K/mol]
5 K, Crystal | 0.56
10 K, Crystal | 4.36
20 K, Crystal | 23.27
30 K, Crystal | 48.82
40 K, Crystal | 77.97
50 K, Crystal | 106.88
60 K, Crystal | 131.71
70 K, Crystal | 154.68
80 K, Crystal | 175.53
90 K, Crystal | 192.9
100 K, Crystal | 208.51
110 K, Crystal | 224.09
120 K, Crystal | 238.4
130 K, Crystal | 252.69
140 K, Crystal | 265.74
150 K, Crystal | 275.72
160 K, Crystal | 284.57
170 K, Crystal | 302.09
180 K, Crystal | 313.76
190 K, Crystal | 326.38
200 K, Crystal | 340.04
210 K, Crystal | 355.66
220 K, Crystal | 367.89
230 K, Crystal | 382.88
240 K, Crystal | 399.49
250 K, Crystal | 418.37
260 K, Crystal | 438.62
270 K, Crystal | 456.93
280 K, Crystal | 480.24
290 K, Crystal | 517.76
310 K, Liquid | 599.17
320 K, Liquid | 605.44
330 K, Liquid | 609.25
340 K, Liquid | 615.4
350 K, Liquid | 622.81
